# Source: patent publication US20110236885A1 (Academia Sinica, priority 2004, published 2011)
# Several values for one entry are separate records, joined by “and”; a condition that tells them apart may be missing. Equal entries are not always repeated.
# What was measured:
# [1] = system: Han Chinese patients having warfarin sensitivity and resistance; test: Warfarin maintenance dose and INR in selected Chinese patients with warfarin sensitivity or resistance, by VKORC1 -1639 genotype; format: in vivo, human; conditions: for Dose: individual patients; for dose requirements, mean / dose requirements, range: selected patients
# Excerpt: (§1) Clinical information (including age, sex, weight, and average daily maintenance dose) was obtained from every participant.
# Primers were specifically designed for the intron-exon junctions, exons and 2 kbps upstream of the transcription start site for both CYP2C9 and VKORC1 using the Primer3 PCR primer program (http://fokker.wi.mit.edu/cgi-bin/primer3/primer3_www.cgi). The primers used to detect variants in the VKORC1 promoter were: 5′-[…] (SEQ ID NO:2; sense strand located 1.5 kb upstream of the transcription start site) and 5′-[…] (SEQ ID NO:3; anti-sense strand located 0.9 kb upstream of the transcription start site). The polymerase chain reactions (PCR) were performed in a final volume of […] containing 0.4 μM of each primer, 10 mM Tris-HCl (pH8.3), 50 mM KCl, 1.5 mM MgCl2, 0.2 mM dNTPs and 1 unit HotStart Taq™ (Qiagen Inc, Valencia, Calif., USA). Amplification conditions consisted of an initial denaturation of 12 min at 96° C., followed by 34 PCR cycles in 30 sec at 96° C., 30 sec at 60° C., 40 sec at 72° C.
# The variants were: 1075 A>C (1359L known as CYP2C9*3), 895 A>G (T299A), and 1145 C>T (P382L).
# We also sequenced the promoter, coding regions, and the exon-intron junctions of the VKORC1 gene.
# [2] = system: randomly selected Chinese patients receiving warfarin; test: Warfarin maintenance dose and INR in 104 randomly selected Chinese patients receiving warfarin, by VKORC1 -1639 genotype; format: in vivo, human
# Description: as §1
# Briefly, primers and probes were designed using the Spectro[…] software (Sequenom). Multiplex PCR was performed, and unincorporated dNTPs were dephosphorylated using shrimp alkaline phosphatase (Hoffman-LaRoche, Basel, Switzerland), followed by primer extension. The purified primer extension reactions were spotted onto a 384-element silicon chip (SpectroCHIP, Sequenom), analyzed in the Bruker Biflex III MALDI-TOF SpectroREADER mass spectrometer (Sequenom), and the resulting spectrum was processed with SpectroTYPER (Sequenom).
# We analyzed the data regardless of the presence of other confounding variables, such as diet or other medications.
# [3] = heterozygous AG at VKORC1 -1639
structure (smiles),measurement,setting,value
"CC(=O)CC(c1ccccc1)c1c(O)c2ccccc2oc1=O (racemic) [warfarin, 4-hydroxy-3-(3-oxo-1-phenylbutyl)-2H-1-benzopyran-2-one]",Dose,"[1]; VKORC1 -1639 AA, warfarin sensitive group (dose ≦1.5 mg/day), average daily maintenance dose",1.43 mg/d and 1.5 mg/d and 0.71 mg/d and 1 mg/d (2×)
same,Dose,"[1]; VKORC1 -1639 AG, warfarin resistant group (dose ≧6 mg/day)",6.07 mg/day and 10 mg/day
same,Dose,"[1]; VKORC1 -1639 GG, warfarin resistant group (dose ≧6 mg/day)",8.57 mg/day and 8.75 mg/day and 10 mg/day
same,"dose requirements, mean",[1]; AA genotype at VKORC1 -1639,1.19 mg/day
same,"dose requirements, range",[1]; AA genotype at VKORC1 -1639,0.71 to 1.50 mg/day
same,"dose requirements, mean",[1]; [3],8.04 mg/day
same,"dose requirements, range",[1]; [3],6.07 to 10 mg/day
same,"dose requirements, mean",[1]; homozygous GG at VKORC1 -1639,9.11 mg/day
same,"dose requirements, range",[1]; homozygous GG at VKORC1 -1639,8.57 to 10 mg/day
same,"warfarin dose, upper limit observed",[2]; none of the randomly selected patients had a greater dose,≤ 6 mg/day
same,maintenance dose,"[2]; randomly selected patients, AA genotype",2.61+/−1.10 my/day
same,"Warfarin dose,","[2]; randomly selected patients, VKORC1 -1639 AG + GG (n = 21), mean ± SD",3.81 ± 1.24 mg/day and 3.81 mg/day
